Legend:
[1] = system: rats after surgically-induced menopause; details: cited from earlier work
[2] = system: rat adipocytes; details: cited from earlier work
[3] = cited from earlier work
[4] = system: estrogen receptor (ER); details: compared with other isoflavones; cited from earlier work
[5] = Metabolic profile of isoflavones and their metabolites in blood of dogs; type: in vivo, dog; details: blood of dogs tested; FIG. 8B
From the text: The following measurements were made for each animal: • Body weight, body condition score, DEXA. • Plasma concentrations of isoflavones and their metabolites • Blood leptin • Intravenous glucose tolerance test • Oxidative stress measurement (isoprostanes: 8-iso-prostaglandin F2α, formed from arachidonic acid in phospholipids by free radical reaction): 3-month samples
The metabolic profiles of isoflavones and their metabolites in the blood of humans (FIG. 8A) and dogs (FIG. 8B) were compared.

[6] = system: topoisomerase II; details: cited from earlier work
[7] = system: tyrosine protein kinase; details: cited from earlier work
[8] = system: angiogenesis; details: cited from earlier work

In the case of `O=c1c(-c2ccc(O)cc2)coc2cc(O)ccc12` [Daidzein, daidzein], the body fat accumulation [1] is listed as “suppressing body fat accumulation”, the “basal and epinephrine-stimulated lipolysis” value [2] is listed as “enhanced” and the “basal and insulin-stimulated lipogenesis” value [2] is listed as “inhibited”.

For `Oc1ccc([C@H]2COc3cc(O)ccc3C2)cc1` [Equol], the antioxidant activity ([3]; compared with all the isoflavones tested, Setchell 2002) is given as “greatest antioxidant activity of all the isoflavones tested”, the “induction of estrogen receptor (ER)-responsive transcription (estrogenic activity)” value [4] is given as “more strongly than any other isoflavones” and the “form of isoflavone metabolite in the blood” value [5] is given as “predominant form of isoflavone metabolite”.

For `O=C1c2ccc(O)cc2OCC1c1ccc(O)cc1` (stereo not shown) [dihydrodaidzein], the “free radical scavenging activities” value ([3]; Jiang 2003) is listed as “appears to have free radical scavenging activities”.

For `O=c1c(-c2ccc(O)cc2)coc2cc(O)cc(O)c12` [genistein], the “inhibition of topoisomerase II” value [6] is given as “inhibitor”, the “inhibition of tyrosine protein kinase” value [7] is given as “inhibits” and the “basal and epinephrine-stimulated lipolysis” value [2] is given as “enhanced”. For the same molecule, the “basal and insulin-stimulated lipogenesis” value [2] was “inhibited” and the inhibition of angiogenesis [8] was “inhibits angiogenesis”.

In the case of `COc1cc2c(=O)c(-c3ccc(O)cc3)coc2cc1O` [glycitein], the body fat accumulation [1] is given as “suppressing body fat accumulation”.
